Assay results: patent publication US8987502B2, “Oleanolic acid amidate derivatives, preparation methods and uses thereof” (Hangzhou Bensheng Pharmaceutical Co., Ltd., priority 2011, dated 2015)
Values after ≈ are worked out from the molar mass of the structure shown.

Tests used:
[1] = system: K562/adr; experiment: MTT leukemia cell proliferation inhibition, K562/adr; format: cell-based; conditions: Homo sapiens, 72 h; for inhibition at 16 µg/mL: 16 μg/mL compound, read-out: IR (inhibition rate); for IC50: MTT
From the text: (§1) Leukemia cell lines: leukemia cell lines: K562/adr (drug-resistant, chronic myeloid leukemia, CML), NB4 (acute promyelocytic leukemia, AML), Kasumi-1 (acute myeloid leukemia M2 type, AML-M2), Jurkat (acute lymphoblastic leukemia, ALL), all of which are donated by Cancer Research Institute of Zhejiang University, China; and H9 (acute lymphoblastic leukemia, ALL), which is purchased from China Center for Type Culture Collection (CCTCC).
(§2) Reagents: The standard sample of oleanolic acid (OA) is purchased from Hua Kang Pharmaceutical Raw Material Factory, Shifang City, Sichuan, China; and the amidated oleanolic acid derivatives are prepared according to the present invention.
(§3) Obtaining 6000 well-growing leukemia cells and inoculating them into wells of a 96-well cell culture plate. The culture medium is the 1640 cell culture medium containing 10% fetal bovine serum. After adding the amidated oleanolic acid derivatives of different concentrations and mixing uniformly, placing the plate in a carbon dioxide cell incubator (5% CO2) at 37° C. and incubated for 72 hours. Then the relative number of viable cells is determined by the MTT method. In this experiment, the cell proliferation inhibition rate in control group (not treated with any compound) is set as 0%.

[2] = system: NB4; experiment: MTT leukemia cell proliferation inhibition, NB4; format: cell-based; conditions: Homo sapiens, NB-4; for inhibition at 16 µg/mL: NB4, 16 μg/mL compound, 72 h, read-out: IR (inhibition rate); for IC50: NB4, 72 h, MTT
From the text: as §1, §2, §3

[3] = system: Kasumi-1; experiment: MTT leukemia cell proliferation inhibition, Kasumi-1; format: cell-based; conditions: Homo sapiens; for inhibition at 16 µg/mL: Kasumi-1, 16 μg/mL compound, 72 h, read-out: IR (inhibition rate); for IC50: Kasumi-1, 72 h, MTT
From the text: as §1, §2, §3

[4] = system: H9; experiment: MTT leukemia cell proliferation inhibition, H9; format: cell-based, human; conditions: Homo sapiens; for inhibition at 16 µg/mL: H9, 16 μg/mL compound, 72 h, read-out: IR (inhibition rate); for IC50: H9, 72 h, MTT
From the text: as §1, §2, §3

[5] = system: Jurkat; experiment: MTT leukemia cell proliferation inhibition, Jurkat; format: cell-based; conditions: Homo sapiens, 72 h; for inhibition at 16 µg/mL: 16 μg/mL compound, read-out: IR (inhibition rate); for IC50: MTT
From the text: as §1, §2, §3

[6] = system: RPMI8226; experiment: MTT multiple myeloma cell proliferation inhibition, RPMI8226; format: cell-based; conditions: Homo sapiens, RPMI-8226; for inhibition at 16 µg/mL: RPMI8226, 16 μg/mL compound, 72 h, read-out: IR (inhibition rate); for IC50: RPMI8226, 72 h, MTT
Description: Multiple myeloma cell lines: RPMI8226 (multiple myeloma), purchased from Fuxiang Bio-tech Co. Ltd., Shanghai, China.
as §3

[7] = system: A549; experiment: MTT solid tumor cell proliferation inhibition, A549; format: cell-based, human; conditions: Homo sapiens; for inhibition at 16 µg/mL: A549, 16 μg/mL compound, 72 h, read-out: IR (inhibition rate); for IC50: A549, 72 h, MTT
Description: (§4) Human solid tumor cell lines: Hep-2 (laryngeal carcinoma), A549 (human lung cancer), CaES-17 (esophageal cancer cell), PC-3 (prostate cancer), CNE (nasopharyngeal carcinoma cell), and SK-OV-3 (ovarian cancer cell), all of which are purchased from China Center For Type Culture Collection; RKO (human colon adenocarcinoma cell), MGC 803 (human gastric cancer cell), MG63 (osteosarcoma) and U87 MG (malignant glioma cell), all of which are purchased from Fuxiang Bio-tech Co. Ltd., Shanghai, China; PANC-1 (pancreatic cancer), Hep G2 (human liver cancer cell), Becap37 (human breast cancer cell), and Hela (human cervical cancer cell), all of which are donated by Cancer Research Institute of Zhejiang University, China.
(§5) Obtaining 4000 well-growing human solid tumor cells and inoculating them into wells of a 96-well cell culture plate. The culture medium is DMEM High Glucose cell culture medium containing 10% fetal bovine serum. The plate is placed in a carbon dioxide cell incubator (5% CO2) at 37° C. for 24 hours for incubation. After being added with the amidated oleanolic acid derivatives of different concentrations and mixed uniformly, the plate is placed in a carbon dioxide cell incubator (5% CO2) at 37° C. for 72 hours for incubation. Then the relative number of the living cells is determined by the MTT method. In this experiment, the cell proliferation inhibition rate in control group (not treated with any compound) is set as 0%.

[8] = system: PANC-1; experiment: MTT solid tumor cell proliferation inhibition, PANC-1; format: cell-based, human; conditions: Homo sapiens; for inhibition at 16 µg/mL: PANC-1, 16 μg/mL compound, 72 h, read-out: IR (inhibition rate); for IC50: PANC-1, 72 h, MTT
Description: as §4, §5

[9] = system: Becap37; experiment: MTT solid tumor cell proliferation inhibition, Becap37; format: cell-based; conditions: Homo sapiens; for inhibition at 16 µg/mL: Becap37, 16 μg/mL compound, 72 h, read-out: IR (inhibition rate); for IC50: Becap37, 72 h, MTT
Description: as §4, §5

[10] = system: MG 63; experiment: MTT solid tumor cell proliferation inhibition, MG 63; format: cell-based, human; conditions: for IC50: Homo sapiens, MG 63, 72 h, MTT; for IR (inhibition rate): MG 63, 16 μg/mL compound, 72 h
Description: as §4, §5

[11] = system: Hep G2; experiment: MTT solid tumor cell proliferation inhibition, Hep G2; format: cell-based; conditions: Homo sapiens, HepG2; for inhibition at 16 µg/mL: Hep G2, 16 μg/mL compound, 72 h, read-out: IR (inhibition rate); for IC50: Hep G2, 72 h, MTT
Description: as §4, §5

[12] = system: RKO; experiment: MTT solid tumor cell proliferation inhibition, RKO; format: cell-based; conditions: Homo sapiens, 72 h; for inhibition at 16 µg/mL: 16 μg/mL compound, read-out: IR (inhibition rate); for IC50: MTT
Description: as §4, §5

[13] = system: U87 MG; experiment: MTT solid tumor cell proliferation inhibition, U87 MG; format: cell-based, human; conditions: Homo sapiens, U-87 MG, U87 MG, 72 h; for inhibition at 16 µg/mL: 16 μg/mL compound, read-out: IR (inhibition rate); for IC50: MTT
Description: as §4, §5

[14] = system: Hela; experiment: MTT solid tumor cell proliferation inhibition, Hela; format: cell-based, human; conditions: Homo sapiens, Hela, 72 h; for inhibition at 16 µg/mL: 16 μg/mL compound, read-out: IR (inhibition rate); for IC50: MTT
Description: as §4, §5

[15] = system: CaES-17; experiment: MTT solid tumor cell proliferation inhibition, CaES-17; format: cell-based, human; conditions: Homo sapiens, CaEs17; for inhibition at 16 µg/mL: CaES-17, 16 μg/mL compound, 72 h, read-out: IR (inhibition rate); for IC50: CaES-17, 72 h, MTT
Description: as §4, §5

[16] = system: CNE; experiment: MTT solid tumor cell proliferation inhibition, CNE; format: cell-based, human; conditions: Homo sapiens, CNE, 72 h; for inhibition at 16 µg/mL: 16 μg/mL compound, read-out: IR (inhibition rate); for IC50: MTT
Description: as §4, §5

[17] = system: Hep-2; experiment: MTT solid tumor cell proliferation inhibition, Hep-2; format: cell-based, human; conditions: Homo sapiens; for inhibition at 16 µg/mL: Hep-2, 16 μg/mL compound, 72 h, read-out: IR (inhibition rate); for IC50: Hep-2, 72 h, MTT
Description: as §4, §5

[18] = system: MGC803; experiment: MTT solid tumor cell proliferation inhibition, MGC803; format: cell-based, human; conditions: Homo sapiens, MGC-803; for inhibition at 16 µg/mL: MGC803, 16 μg/mL compound, 72 h, read-out: IR (inhibition rate); for IC50: MGC803, 72 h, MTT
Description: as §4, §5

[19] = system: PC-3; experiment: MTT solid tumor cell proliferation inhibition, PC-3; format: cell-based, human; conditions: Homo sapiens; for inhibition at 16 µg/mL: PC-3, 16 μg/mL compound, 72 h, read-out: IR (inhibition rate); for IC50: PC-3, 72 h, MTT
Description: as §4, §5

[20] = system: SK-OV-3; experiment: MTT solid tumor cell proliferation inhibition, SK-OV-3; format: cell-based, human; conditions: Homo sapiens; for inhibition at 16 µg/mL: SK-OV-3, 16 μg/mL compound, 72 h, read-out: IR (inhibition rate); for IC50: SK-OV-3, 72 h, MTT
Description: as §4, §5

| SMILES | inhibition at 16 µg/mL [1] [%] | IC50 [1] [µg/mL] | inhibition at 16 µg/mL [2] [%] | IC50 [2] [µg/mL] | inhibition at 16 µg/mL [3] [%] | IC50 [3] [µg/mL] | inhibition at 16 µg/mL [4] [%] | IC50 [4] [µg/mL] | inhibition at 16 µg/mL [5] [%] | IC50 [5] [µg/mL] | inhibition at 16 µg/mL [6] [%] | IC50 [6] [µg/mL] | inhibition at 16 µg/mL [7] [%] | IC50 [7] [µg/mL] | inhibition at 16 µg/mL [8] [%] | IC50 [8] [µg/mL] | inhibition at 16 µg/mL [9] [%] | IC50 [9] [µg/mL] | IC50 [10] [µg/mL] | IR (inhibition rate) [10] [%] | other results |
| --- | --- | --- | --- | --- | --- | --- | --- | --- | --- | --- | --- | --- | --- | --- | --- | --- | --- | --- | --- | --- | --- |
| CC1(C)CC[C@]2(NC(=O)c3cccs3)CC[C@]3(C)C(=CC[C@@H]4[C@@]5(C)CC[C@H](O)C(C)(C)[C@@H]5CC[C@]43C)[C@@H]2C1 [BS-OA-098] | 81.9 | 7.83 (≈ 14.6 µM) | 96.3 | 8.22 (≈ 15.3 µM) | 35.7 | > 16 | 62.4 | 12.5 (≈ 23.2 µM) | 20.1 | > 16 | 97.6 | 6.44 (≈ 12 µM) | 24.3 | > 16 | 34.7 | > 16 | 28.6 | > 16 | > 16 | 20.9 | inhibition at 16 µg/mL [11]: 28.4%; IC50 [11]: > 16 µg/mL; inhibition at 16 µg/mL [12]: 27%; IC50 [12]: > 16 µg/mL; inhibition at 16 µg/mL [13]: 29.8%; IC50 [13]: > 16 µg/mL; inhibition at 16 µg/mL [14]: 63.1%; IC50 [14]: 14.2 µg/mL (≈ 26.3 µM); inhibition at 16 µg/mL [15]: 39.9%; IC50 [15]: > 16 µg/mL; inhibition at 16 µg/mL [16]: 35.8%; IC50 [16]: > 16 µg/mL; inhibition at 16 µg/mL [17]: 19.6%; IC50 [17]: > 16 µg/mL; inhibition at 16 µg/mL [18]: 46.3%; IC50 [18]: 16 µg/mL (≈ 29.7 µM); inhibition at 16 µg/mL [19]: 45.1%; IC50 [19]: 17.4 µg/mL (≈ 32.4 µM); inhibition at 16 µg/mL [20]: 53.5%; IC50 [20]: 14.6 µg/mL (≈ 27.2 µM) |
| CC1(C)CC[C@]2(C(=O)O)CC[C@]3(C)C(=CC[C@@H]4[C@@]5(C)CC[C@H](O)C(C)(C)[C@@H]5CC[C@]43C)[C@@H]2C1 [OA, Oleanolic acid] | 26.5 | > 16 | 17.2 | > 16 | 17.2 | > 16 | 22.8 | > 16 | 9.4 | > 16 | 2.2 | > 16 | 5 | > 16 | 8.5 | > 16 | 23.4 | > 16 | > 16 | 29.2 | inhibition at 16 µg/mL [11]: -18.5%; IC50 [11]: > 16 µg/mL; inhibition at 16 µg/mL [12]: 14.3%; IC50 [12]: > 16 µg/mL; inhibition at 16 µg/mL [13]: 21.8%; IC50 [13]: > 16 µg/mL; inhibition at 16 µg/mL [14]: 22.9%; IC50 [14]: > 16 µg/mL; inhibition at 16 µg/mL [15]: 27.4%; IC50 [15]: > 16 µg/mL; inhibition at 16 µg/mL [16]: 33.9%; IC50 [16]: > 16 µg/mL; inhibition at 16 µg/mL [17]: 9.8%; IC50 [17]: > 16 µg/mL; inhibition at 16 µg/mL [18]: 19.7%; IC50 [18]: > 16 µg/mL; inhibition at 16 µg/mL [19]: 29.1%; IC50 [19]: > 16 µg/mL; inhibition at 16 µg/mL [20]: 8.3%; IC50 [20]: > 16 µg/mL |
